Data from US20180105548A1, “A novel compound (KS-513) isolated from Pseudolysimachion rotundum var. subintegrum, the composition comprising the same preventing or treating allergic disease, inflammatory disease, asthma or chronic obstructive pulmonary disease and the use thereof” (priority 2015, published 2018).

Experiments:
IL-1beta = test: mRNA expression of IL-1beta in RAW264.7 cell line induced by LPS (real-time PCR); type: cell-based, mouse; conditions: for IL-1beta mRNA expression, Fold (value compared with a negative group) / IL-1beta mRNA expression, Inhibition ratio (IR) compared with LPS treatment group: LPS 1 μg/ml, 12 hours
Method: (§1) In order to determine the inhibitory effect on the mRNA expression of pro-inflammatory medicated enzyme such as iNOS or COX-2, and pro-inflammatory medicated cytokines such as IL-1beta, IL-6, TNF-alpha in RAW264.7 cell line induced by LPS, following test using by real-time PCR (real-time polymerase chain reaction, quantitative real time polymerase chain reaction, qPCR) was performed according to the method disclosed in the literature (Livak, K. J., Schimittgen T. D., 2001, Analysis of relative gene expression data using real-time quantitiative PCR and the 2 (-Delta Delta C(T) method, Methods 25, p 402-408):
(§2) RAW264.7 cell was inoculated into 6-well-plates in the concentration of 1×10^6 cell/well to incubate for 12 hours. Various concentration of KS-513 compound (2.5, 5, 10 and 20 μM) was pre-treated therewith and 1 μg/mL of LPS (L6529, Sigma) was added thereto to incubate for 12 hours.
(§3) To extract total RNA, RNA was extracted using by Triazol B (invitrogen) and cDNA was synthesized using by Omniscript RT kit (205113, Qiagen, Gmbh, Hilden, Germany) after the quantification. The synthesized cDNA was mixed with its template and the primers shown in Table 3 (SEQ.I.D. 1-14), performed to denaturation at 94° C. for 5 mins using by PCR mix (PCR master Mix, Bioneer, Korea), and reacted as follows: 1 cycle for pre-denaturation; at 95° C. for 30 sec, 60° C. for 45 sec, 72° C. for 45 sec, 30 cycles for denaturation; 10 mins at 72° C., 1cycle for final extension. (FIG. 2)

IL-6 = IL-6 production in LPS-treated RAW264.7 cell (ELISA); type: cell-based, mouse; conditions: for IL-6 production (relative % comparing with LPS treatment group) / IL-6 production, Inhibitory ratio (%): LPS 1 μg/mL, 24 hours
Method: RAW264.7 cell was inoculated into 96 well plates in the concentration of 1×10^5 cell/well to incubate for 18 hours. Various concentration of KS-513 compound (2.5, 5, 10 and 20 μM) was pre-treated therewith and 1 μg/mL of LPS (L6529, Sigma) was added thereto to incubate for 24 hours. The level of inflammatory cytokines such as IL-1beta, IL-6, TNF-alpha etc in the cell medium was determined by ELISA kit (IL-1beta:559603, IL-6:555240, TNF-alpha:5558534, BD) and the result was shown in FIG. 5 and Table 7-9.

iNOS = test: mRNA expression of iNOS in RAW264.7 cell line induced by LPS (real-time PCR); type: cell-based, mouse; conditions: for iNOS mRNA expression, Fold (value compared with a negative group) / iNOS mRNA expression, Inhibition ratio (IR) compared with LPS treatment group: LPS 1 μg/ml, 12 hours
Method: as §1, §2, §3

RAW264.7 cell = test: Cytotoxicity test (CCK-8) in RAW264.7 cell; type: cell-based, mouse; conditions: up to 80 μM
Method: (§4) RAW264.7 cell (TIB-71, ATCC), a mouse macrophage cell, was suspended in 5% FBS (Fetal Bovine Serum)-supplemented DMEM (Dulbecco's Modified Eagle Medium, Gibco) medium in a concentration of 1×10^5 cells/ml, and 100 μL of the suspension was inoculated into 96 well plates to adhere cell to the plate for 4 hours. Various concentrations of test sample (KS 513 compound) were treated therewith and cultured for 24 hours. 10 μL of CCK-8 solution was mixed therewith according to the manufacture's manual kit (Dojindo Co. Ltd), reacted from 30 mins to 4 hours, and the absorbance of the solution was determined at […]. The cell viability was calculated according to following Math formulae 1 based on negative control group treated with 0.2% DMSO and the result was shown in Table 2.
(§5) Cell viability (%)=OD 570 nm (test group)/OD 570 nm (negative control group)×100 Math formulae 1

[1] = Cytotoxicity test (CCK-8) in RAW264.7 cell; type: cell-based, mouse; conditions: mouse, RAW264.7 macrophage cells
Method: as §4, §5

[2] = Acute toxicity test of oral administration in rat; conditions: Sprague-Dawley, in vivo
Method: The acute toxicity test was performed by administrating inventive compound to 6-weeks aged SPF Sprague-Dawley rats.
After administrating the extract or compounds, all the clinical changes i.e., mortality, clinical signs, body weight changes was observed and blood test such as haematological test and hematological biochemistry test was performed. The abnormal changes of abdominal organ and thoracic organ were observed after autopsy.

TNF-alpha = test: mRNA expression of TNF-alpha in RAW264.7 cell line induced by LPS (real-time PCR); type: cell-based, mouse; conditions: for TNF-alpha mRNA expression, Fold (value compared with a negative group) / TNF-alpha mRNA expression, Inhibition ratio (IR) compared with LPS treatment group: LPS 1 μg/ml, 12 hours
Method: as §1, §2, §3

PGE2 = PGE2 production in LPS-treated RAW264.7 cell (EIA); type: cell-based, mouse; conditions: for PGE2 production (relative % comparing with LPS treatment group) / PGE2 production, Inhibitory ratio (%): LPS 1 μg/mL, 24 hours
Method: In order to determine the inhibitory effect on the COX-2 protein expression and the reproduced level of PGE2, following test was performed by the method disclosed in the literature (Chen, C, et al., 1999, Involvement of p 38 mitogen-activated protein kinase in lipopolysaccharide-induced iNOS and COX-2 expression in J774 macrophage, Immunology, 97, pp 124-129)
RAW264.7 cell was inoculated into 96 well plates in the concentration of 1×10^5 cell/well to incubate for 18 hours. Various concentration of KS-513 compound (2.5, 5, 10 and 20 μM) was pre-treated therewith and 1 μg/mL of LPS (L6529, Sigma) was added thereto to incubate for 24 hours. The PGE2 level in the cell was determined by Enzyme immunoassay (EIA; Amersham Pharmacia) system and the result was shown in FIG. 4A, 4B and Table 6.

[3] = various concentration, compared with control group treated with LPS (100%)

For `CO[C@@H]1C[C@H]2[C@H](OC(=O)c3ccc(O)cc3)[C@@H]3O[C@]3(CO)[C@H]2[C@H](O[C@@H]2O[C@H](CO)[C@@H](O)C(O)[C@H]2O)O1` (stereo partly drawn) [KS-513, (1aS, 1bS,2S,4S,5aR,6S,6aS)-1a-(hydroxymethyl)-4-methoxy-2-(((2S,3R,5S,6R)-3,4,5-trihydroxy-6-(hydroxymethyl)tetrahydro-2H-pyran-2-yl)oxy)octahydrooxireno[2′,3′:4,5]cyclopenta[1,2-c]pyran-6-yl 4-hydroxybenzoate], the “IL-1beta mRNA expression, Fold (value compared with a negative group)” value (shortened to “IL-1beta mRNA expression, Fold”) (IL-1beta; 2.5 μM) was 10.41 ± 1.09 Fold, the “IL-1beta mRNA expression, Inhibition ratio (IR) compared with LPS treatment group” value (IL-1beta; 2.5 μM) was 37.69% and the “IL-1beta mRNA expression, Fold” value (IL-1beta; 5 μM) was 5.72 ± 0.24 Fold. The “IL-1beta mRNA expression, Inhibition ratio (IR) compared with LPS treatment group” value (IL-1beta; 5 μM) was 65.75%, the “IL-1beta mRNA expression, Fold” value (IL-1beta; 10 μM) was 2.56 ± 0.14 Fold and the “IL-1beta mRNA expression, Inhibition ratio (IR) compared with LPS treatment group” value (IL-1beta; 10 μM) was 84.68%. The “IL-1beta mRNA expression, Fold” value (IL-1beta; 20 μM) was 1.70 ± 0.59 Fold, the “IL-1beta mRNA expression, Inhibition ratio (IR) compared with LPS treatment group” value (IL-1beta; 20 μM) was 89.85% and the “expressed level of mRNA of IL-1beta” value (IL-1beta; [3]) was “significantly decreased in a dose dependent manner”. For the same compound, the “IL-6 production (relative % comparing with LPS treatment group)” value (IL-6; 2.5 μM) was 75.21 ± 2.20%, the “IL-6 production, Inhibitory ratio (%)” value (IL-6; 2.5 μM) was 24.79% and the “IL-6 production (relative % comparing with LPS treatment group)” value (IL-6; 5 μM) was 71.34 ± 5.75%. The “IL-6 production, Inhibitory ratio (%)” value (IL-6; 5 μM) was 28.66%, the “IL-6 production (relative % comparing with LPS treatment group)” value (IL-6; 10 μM) was 51.13 ± 2.31% and the “IL-6 production, Inhibitory ratio (%)” value (IL-6; 10 μM) was 48.87%. The “IL-6 production (relative % comparing with LPS treatment group)” value (IL-6; 20 μM) was 39.25 ± 2.85%, the “IL-6 production, Inhibitory ratio (%)” value (IL-6; 20 μM) was 60.75% and the “level of produced IL-6” value (IL-6; vs LPS treatment group (1 μg/ml), FIG. 5) was “reduced in a dose dependent manner”. The “iNOS mRNA expression, Fold (value compared with a negative group)” value (from here on “iNOS mRNA expression, Fold”) (iNOS; 2.5 μM) was 7.25 ± 2.51 Fold, the “iNOS mRNA expression, Inhibition ratio (IR) compared with LPS treatment group” value (“iNOS mRNA expression, Inhibition ratio” for short) (iNOS; 2.5 μM) was 18.41% and the “iNOS mRNA expression, Fold” value (iNOS; 5 μM) was 5.94 ± 2.91 Fold. The “iNOS mRNA expression, Inhibition ratio” value (iNOS; 5 μM) was 33.09%, the “iNOS mRNA expression, Fold” value (iNOS; 10 μM) was 2.48 ± 0.19 Fold and the “iNOS mRNA expression, Inhibition ratio” value (iNOS; 10 μM) was 72.12%. For the same compound, the “iNOS mRNA expression, Fold” value (iNOS; 20 μM) was 1.32 ± 0.47 Fold, the “iNOS mRNA expression, Inhibition ratio” value (iNOS; 20 μM) was 85.19% and the “expressed level of mRNA of iNOS” value (iNOS; [3]) was “significantly decreased in a dose dependent manner”. The “cytotoxicity in RAW264.7 cell” value (RAW264.7 cell) was “did not show cytotoxicity”, the viability at 24 h, 2.5 µM ([1]; 2.5 μM, 24 hours, vs negative control 0.2% DMSO, read-out: RAW264.7 cell viability (%, mean ± variation)) was 99.6 ± 3.66% and the viability at 24 h, 5 µM ([1]; 5 μM, 24 hours, vs negative control 0.2% DMSO, read-out: RAW264.7 cell viability (%, mean ± variation)) was 99.3 ± 5.68%. For the same compound, the viability at 24 h, 10 µM ([1]; 10 μM, 24 hours, vs negative control 0.2% DMSO, read-out: RAW264.7 cell viability (%, mean ± variation)) was 98.2 ± 3.28%, the viability at 24 h, 20 µM ([1]; 20 μM, 24 hours, vs negative control 0.2% DMSO, read-out: RAW264.7 cell viability (%, mean ± variation)) was 94.7 ± 3.03% and the viability at 24 h, 40 µM ([1]; 40 μM, 24 hours, vs negative control 0.2% DMSO, read-out: RAW264.7 cell viability (%, mean ± variation)) was 97.2 ± 7%. The viability at 24 h, 80 µM ([1]; 80 μM, 24 hours, vs negative control 0.2% DMSO, read-out: RAW264.7 cell viability (%, mean ± variation)) was 95.1 ± 2.73%, the viability at 24 h ([1]; at less than 80 μM) was > 95% and the LD50 at 14 days [2] was > 5000 mg/kg. For the same compound, the “TNF-alpha mRNA expression, Fold (value compared with a negative group)” value (“TNF-alpha mRNA expression, Fold” for short) (TNF-alpha; 2.5 μM) was 9.60 ± 3.33 Fold, the “TNF-alpha mRNA expression, Inhibition ratio (IR) compared with LPS treatment group” value (TNF-alpha; 2.5 μM) was 14.34% and the “TNF-alpha mRNA expression, Fold” value (TNF-alpha; 5 μM) was 5.34 ± 3.27 Fold. The “TNF-alpha mRNA expression, Inhibition ratio (IR) compared with LPS treatment group” value (TNF-alpha; 5 μM) was 52.39%, the “TNF-alpha mRNA expression, Fold” value (TNF-alpha; 10 μM) was 2.72 ± 0.99 Fold and the “TNF-alpha mRNA expression, Inhibition ratio (IR) compared with LPS treatment group” value (TNF-alpha; 10 μM) was 75.69%. For the same compound, the “TNF-alpha mRNA expression, Fold” value (TNF-alpha; 20 μM) was 1.49 ± 0.77 Fold, the “TNF-alpha mRNA expression, Inhibition ratio (IR) compared with LPS treatment group” value (TNF-alpha; 20 μM) was 86.70% and the “expressed level of mRNA of TNF-alpha” value (TNF-alpha; [3]) was “significantly decreased in a dose dependent manner”. The “PGE2 production (relative % comparing with LPS treatment group)” value (PGE2; 2.5 μM) was 92.68 ± 7.29%, the “PGE2 production, Inhibitory ratio (%)” value (PGE2; 2.5 μM) was 7.31% and the “PGE2 production (relative % comparing with LPS treatment group)” value (PGE2; 5 μM) was 72.87 ± 8.78%. For the same compound, the “PGE2 production, Inhibitory ratio (%)” value (PGE2; 5 μM) was 27.13%, the “PGE2 production (relative % comparing with LPS treatment group)” value (PGE2; 10 μM) was 51.65 ± 8.44% and the “PGE2 production, Inhibitory ratio (%)” value (PGE2; 10 μM) was 48.35%. For the same compound, the “PGE2 production (relative % comparing with LPS treatment group)” value (PGE2; 20 μM) was 28.23 ± 4.72%, the “PGE2 production, Inhibitory ratio (%)” value (PGE2; 20 μM) was 71.77% and the “reproduced ratio of PGE2” value (PGE2; based on LPS treatment (100%)) was “reduced in a dose dependent manner”.
